US6737383B1, “Herbicidal oxadiazolidines” (priority 1999, dated 2004)

Legend:
wheat = assay: Test B pre/postemergence wheat; assay type: in vivo, Triticum aestivum
Summary of the method: (§1)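 Response is a visual 0-to-10 score relative to untreated plants, where 0 means no effect and 10 means complete control, taken twelve to sixteen days after application. Treatments went onto soil at planting and onto foliage of 1- to 4-leaf plants, using a surfactant-containing non-phytotoxic solvent.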

pigweed = assay: Test B pre/postemergence pigweed; assay type: in vivo, Amaranthus retroflexus
Summary of the method: as §1

purple nutsedge = assay: Test B pre/postemergence purple nutsedge; assay type: in vivo, Cyperus rotundus
Summary of the method: as §1

blackgrass = assay: Test B pre/postemergence blackgrass; assay type: in vivo, Alopecurus myosuroides
Summary of the method: as §1

bamyardgrass = assay: Test B flood test barnyardgrass; assay type: in vivo, Echinochloa crus-galli
Summary of the method: (§2)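 Each value is a visual injury score relative to controls, with 10 meaning complete control and 0 no effect. Evaluation took place twelve to sixteen days after the 2-leaf-stage plants were treated and kept in the greenhouse.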

morningglory = assay: Test B pre/postemergence morningglory; assay type: in vivo, Ipomoea hederacea
Summary of the method: as §1

duck salad = assay: Test B flood test duck salad; assay type: in vivo, Heteranthera limosa
Summary of the method: as §2

giant foxtail = assay: Test B pre/postemergence giant foxtail; assay type: in vivo, Setaria faberii
Summary of the method: as §1

velvetleaf = assay: Test B pre/postemergence velvetleaf; assay type: in vivo, Abutilon theophrasti
Summary of the method: as §1

cocklebur = assay: Test B pre/postemergence cocklebur; assay type: in vivo, Xanthium strumarium
Summary of the method: as §1

soybean = assay: Test B pre/postemergence soybean; assay type: in vivo, Glycine max
Summary of the method: as §1

rice = assay: Test B flood test rice; assay type: in vivo, Oryza sativa
Summary of the method: as §2

rape = assay: Test B pre/postemergence rape; assay type: in vivo, Brassica napus
Summary of the method: as §1

sugar beet = assay: Test B pre/postemergence sugar beet; assay type: in vivo, Beta vulgaris
Summary of the method: as §1

smallflower flatsedge = assay: Test B flood test smallflower flatsedge; assay type: in vivo, Cyperus difformis
Summary of the method: as §2

wild oat = assay: Test B pre/postemergence wild oat; assay type: in vivo, Avena fatua
Summary of the method: as §1

[1] = Postemergence, Rate 250 g/ha, scale 0 to 10
[2] = Postemergence, Rate 500 g/ha, scale of 0 to 10 where 0 is no effect and 10 is complete control
[3] = Preemergence, Rate 62 g/ha, scale 0 to 10 (0 no effect, 10 complete control)
[4] = Preemergence, Rate 125 g/ha, scale of 0 to 10 where 0 is no effect and 10 is complete control
[5] = Preemergence, Rate 250 g/ha, scale 0 to 10, 0 is no effect, 10 is complete control
[6] = Preemergence, Rate 500 g/ha, scale 0 to 10, 0 is no effect, 10 is complete control
[7] = Rate 62 g/ha, Postemergence, scale 0 to 10 (0 no effect, 10 complete control)
[8] = Rate 125 g/ha, Postemergence, scale 0 to 10, 0 is no effect, 10 is complete control
[9] = Postemergence block (flood test species), Rate 250 g/ha, scale 0 to 10
[10] = Postemergence section (flood test species), Rate 500 g/ha, scale of 0 to 10 where 0 is no effect and 10 is complete control
[11] = Rate 62 g/ha, Postemergence (flood test), scale 0 to 10, 0 no effect, 10 complete control
[12] = Rate 125 g/ha, Postemergence section (flood test species), scale 0 to 10, 0 is no effect, 10 is complete control

With `CC(C)N(C(=O)n1oc(=O)n(C(C)C#N)c1=O)c1ccccc1` (stereo not shown) [Compound 435] the “Wheat plant response rating” value (wheat; [1]) was 0, the “Wheat plant response rating” value (wheat; [2]) was 0 and the “Plant response rating, Wheat” value (wheat; [3]) was 0. For the same compound, the “Plant response rating, Wheat” value (wheat; [4]) was 0, the “Wheat plant response rating” value (wheat; [5]) was 0 and the “Wheat plant response rating” value (wheat; [6]) was 0. For the same compound, the “Wheat plant response rating” value (wheat; [7]) was 0, the “Wheat plant response rating” value (wheat; [8]) was 0 and the “Redroot pigweed plant response rating” value (pigweed; [1]) was 2. The “Redroot pigweed plant response rating” value (pigweed; [2]) was 2, the “Plant response rating, Redroot pigweed” value (pigweed; [3]) was 2 and the “Plant response rating, Redroot pigweed” value (pigweed; [4]) was 2. For the same compound, the “Redroot pigweed plant response rating” value (pigweed; [5]) was 4, the “Redroot pigweed plant response rating” value (pigweed; [6]) was 8 and the “Redroot pigweed plant response rating” value (pigweed; [7]) was 0. The “Redroot pigweed plant response rating” value (pigweed; [8]) was 0, the “Nutsedge plant response rating” value (purple nutsedge; [1]) was 0 and the “Nutsedge plant response rating” value (purple nutsedge; [2]) was 3. For the same compound, the “Plant response rating, Nutsedge” value (purple nutsedge; [3]) was 0, the “Plant response rating, Nutsedge” value (purple nutsedge; [4]) was 0 and the “Nutsedge plant response rating” value (purple nutsedge; [5]) was 0. For the same compound, the “Nutsedge plant response rating” value (purple nutsedge; [6]) was 0, the “Nutsedge plant response rating” value (purple nutsedge; [7]) was 0 and the “Nutsedge plant response rating” value (purple nutsedge; [8]) was 0. For the same compound, the “Blackgrass plant response rating” value (blackgrass; [1]) was 6, the “Blackgrass plant response rating” value (blackgrass; [2]) was 8 and the “Plant response rating, Blackgrass” value (blackgrass; [3]) was 0. The “Plant response rating, Blackgrass” value (blackgrass; [4]) was 0, the “Blackgrass plant response rating” value (blackgrass; [5]) was 0 and the “Blackgrass plant response rating” value (blackgrass; [6]) was 2. For the same compound, the “Blackgrass plant response rating” value (blackgrass; [7]) was 0, the “Blackgrass plant response rating” value (blackgrass; [8]) was 0 and the “Barnyardgrass plant response rating” value (bamyardgrass; [9]) was 0. The “Barnyardgrass plant response rating” value (bamyardgrass; [10]) was 0, the “Barnyardgrass plant response rating” value (bamyardgrass; [11]) was 0 and the “Barnyardgrass plant response rating” value (bamyardgrass; [12]) was 0. The “Morningglory plant response rating” value (morningglory; [1]) was 6, the “Morningglory plant response rating” value (morningglory; [2]) was 9 and the “Plant response rating, Morningglory” value (morningglory; [3]) was 0. For the same compound, the “Plant response rating, Morningglory” value (morningglory; [4]) was 0, the “Morningglory plant response rating” value (morningglory; [5]) was 0 and the “Morningglory plant response rating” value (morningglory; [6]) was 0. The “Morningglory plant response rating” value (morningglory; [7]) was 1, the “Morningglory plant response rating” value (morningglory; [8]) was 2 and the “Ducksalad plant response rating” value (duck salad; [9]) was 0. The “Ducksalad plant response rating” value (duck salad; [10]) was 0, the “Ducksalad plant response rating” value (duck salad; [11]) was 0 and the “Ducksalad plant response rating” value (duck salad; [12]) was 0. For the same compound, the “Giant foxtail plant response rating” value (giant foxtail; [1]) was 8, the “Giant foxtail plant response rating” value (giant foxtail; [2]) was 9 and the “Plant response rating, Giant foxtail” value (giant foxtail; [3]) was 0. The “Plant response rating, Giant foxtail” value (giant foxtail; [4]) was 2, the “Giant foxtail plant response rating” value (giant foxtail; [5]) was 3 and the “Giant foxtail plant response rating” value (giant foxtail; [6]) was 9. The “Giant foxtail plant response rating” value (giant foxtail; [7]) was 0, the “Giant foxtail plant response rating” value (giant foxtail; [8]) was 3 and the “Velvetleaf plant response rating” value (velvetleaf; [1]) was 0. For the same compound, the “Velvetleaf plant response rating” value (velvetleaf; [2]) was 0, the “Plant response rating, Velvetleaf” value (velvetleaf; [3]) was 0 and the “Plant response rating, Velvetleaf” value (velvetleaf; [4]) was 0. For the same compound, the “Velvetleaf plant response rating” value (velvetleaf; [5]) was 1, the “Velvetleaf plant response rating” value (velvetleaf; [6]) was 2 and the “Velvetleaf plant response rating” value (velvetleaf; [7]) was 0. For the same compound, the “Velvetleaf plant response rating” value (velvetleaf; [8]) was 0, the “Cocklebur plant response rating” value (cocklebur; [1]) was 0 and the “Cocklebur plant response rating” value (cocklebur; [2]) was 0. The “Plant response rating, Cocklebur” value (cocklebur; [3]) was 0, the “Plant response rating, Cocklebur” value (cocklebur; [4]) was 0 and the “Cocklebur plant response rating” value (cocklebur; [5]) was 0. The “Cocklebur plant response rating” value (cocklebur; [6]) was 0, the “Cocklebur plant response rating” value (cocklebur; [7]) was 0 and the “Cocklebur plant response rating” value (cocklebur; [8]) was 0. The “Soybean plant response rating” value (soybean; [1]) was 1, the “Soybean plant response rating” value (soybean; [2]) was 3 and the “Plant response rating, Soybean” value (soybean; [3]) was 0. The “Plant response rating, Soybean” value (soybean; [4]) was 0, the “Soybean plant response rating” value (soybean; [5]) was 0 and the “Soybean plant response rating” value (soybean; [6]) was 0. The “Soybean plant response rating” value (soybean; [7]) was 0, the “Soybean plant response rating” value (soybean; [8]) was 1 and the “Rice plant response rating” value (rice; [9]) was 0. The “Rice plant response rating” value (rice; [10]) was 0, the “Rice plant response rating” value (rice; [11]) was 0 and the “Rice plant response rating” value (rice; [12]) was 0. For the same compound, the “Rape plant response rating” value (rape; [1]) was 0, the “Rape plant response rating” value (rape; [2]) was 0 and the “Plant response rating, Rape” value (rape; [3]) was 0. For the same compound, the “Plant response rating, Rape” value (rape; [4]) was 0, the “Rape plant response rating” value (rape; [5]) was 0 and the “Rape plant response rating” value (rape; [6]) was 0. The “Rape plant response rating” value (rape; [7]) was 0, the “Rape plant response rating” value (rape; [8]) was 0 and the “Sugarbeets plant response rating” value (sugar beet; [1]) was 0. For the same compound, the “Sugarbeets plant response rating” value (sugar beet; [2]) was 0, the “Plant response rating, Sugarbeets” value (sugar beet; [3]) was 0 and the “Plant response rating, Sugarbeets” value (sugar beet; [4]) was 0. For the same compound, the “Sugarbeets plant response rating” value (sugar beet; [5]) was 0, the “Sugarbeets plant response rating” value (sugar beet; [6]) was 1 and the “Sugarbeets plant response rating” value (sugar beet; [7]) was 0. For the same compound, the “Sugarbeets plant response rating” value (sugar beet; [8]) was 0, the “S. Flatsedge plant response rating” value (smallflower flatsedge; [9]) was 0 and the “S. Flatsedge plant response rating” value (smallflower flatsedge; [10]) was 0. The “S. Flatsedge plant response rating” value (smallflower flatsedge; [11]) was 0, the “S. Flatsedge plant response rating” value (smallflower flatsedge; [12]) was 0 and the “Wild oats plant response rating” value (wild oat; [1]) was 0. The “Wild oats plant response rating” value (wild oat; [2]) was 3, the “Plant response rating, Wild oats” value (wild oat; [3]) was 0 and the “Plant response rating, Wild oats” value (wild oat; [4]) was 0. For the same compound, the “Wild oats plant response rating” value (wild oat; [5]) was 2, the “Wild oats plant response rating” value (wild oat; [6]) was 3 and the “Wild oats plant response rating” value (wild oat; [7]) was 0. The “Wild oats plant response rating” value (wild oat; [8]) was 0.
